Results: EP0558673B1, “RETROVIRAL PROTEASE INHIBITORS” (MONSANTO COMPANY, priority 1990, dated 1992)

Key:
[1] = target: T1, HIV protease (Human immunodeficiency virus type 1 group M subtype B, UniProt P04585); assay: HIV protease enzyme assay (fluorescence, substrate 2-aminobenzoyl-Ile-Nle-Phe(p-NO₂)-Gln-ArgNH₂); format: biochemical; details: Table 16; enzyme 12.3 nanomolar, substrate 80 µM, pH 6.4, ambient temperature; read-out: IC₅₀
T1 construct: final enzyme concentration of 12.3 nanomolar, based on a molecular weight of 10,780
Description: The compounds of the present invention are effective HIV protease inhibitors. Utilizing an enzyme assay as described below, the compounds set forth in the examples herein disclosed inhibited the HIV enzyme. The preferred compounds of the present invention and their calculated IC₅₀ (inhibiting concentration 50%, i.e., the concentration at which the inhibitor compound reduces enzyme activity by 50%) values are shown in Table 16. The enzyme method is described below. The substrate is 2-aminobenzoyl-Ile-Nle-Phe(p-NO₂)-Gln-ArgNH₂. The positive control is MVT-101 (Miller, M. et al, Science, 246, 1149 (1989)] The assay conditions are as follows: Assay buffer: 20 mM sodium phosphate, pH 6.4 20% glycerol 1 mM EDTA 1 mM DTT 0.1% CHAPS
The above described substrate is dissolved in DMSO, then diluted 10 fold in assay buffer. Final substrate concentration in the assay is 80 µM.
HIV protease is diluted in the assay buffer to a final enzyme concentration of 12.3 nanomolar, based on a molecular weight of 10,780.
The final concentration of DMSO is 14% and the final concentration of glycerol is 18%. The test compound is dissolved in DMSO and diluted in DMSO to 10x the test concentration; 10µl of the enzyme preparation is added, the materials mixed and then the mixture is incubated at ambient temperature for 15 minutes. The enzyme reaction is initiated by the addition of 40µl of substrate. The increase in fluorescence is monitored at 4 time points (0, 8, 16 and 24 minutes) at ambient temperature. Each assay is carried out in duplicate wells.

[2] = tested on: HIV-1; assay: CEM cell assay: HIV inhibition assay of acutely infected cells (tetrazolium/MTT colorimetric); format: cell-based; details: Human immunodeficiency virus 1, CCRF-CEM, 168 h; Table 17; CEM cells acutely infected with HIV-1, 7 days, MTT readout; read-out: EC₅₀
Method: The effectiveness of the compounds listed in Table 16 were determined in the above-described enzyme assay and in a CEM cell assay.
Methods 20, 309-321 (1988).

SMILES	IC50 [1] [nM]	EC50 [2] [nM]
CC(C)CCN(C[C@@H](O)[C@H](Cc1ccccc1)NC(=O)[C@@H](NS(=O)(=O)CCc1ccccc1)C(C)(C)C)C(=O)NC(C)(C)C (relative stereo) [Compound 1, 3-Thia-4,7,11-triazadodecan-12-amide, N,5-bis(1,1-dimethylethyl)-9-hydroxy-11-(3-methylbutyl)-6-oxo-8-(phenylmethyl)-1-phenyl-, 2,2-dioxide-,5S-,(5R*,8R*,9S*)]]	22	510
CC(C)CCN(C[C@@H](O)[C@H](Cc1ccccc1)NC(=O)[C@H](CC(N)=O)NS(=O)(=O)CCc1ccccc1)C(=O)NC(C)(C)C (relative stereo) [Compound 3, 3-Thia-4,7,11-triazadodecan-12-amide, N-(1,1-dimethylethyl)-5-(2-amino-2-oxo-ethyl)-9-hydroxy-11-(3-methylbutyl)-6-oxo-8-(phenylmethyl)-1-phenyl-, 2,2-dioxide-,[5S-,(5R*,8R*,9S*)]]	24	
CC(C)CCN(C[C@@H](O)[C@H](Cc1ccccc1)NC(=O)[C@@H](NS(=O)(=O)CCc1ccccc1)C(C)C)C(=O)NC(C)(C)C (relative stereo) [Compound 2, 3-Thia-4,7,11-triazadodecan-12-amide, N-(1,1-dimethylethyl)-5-(1-methylethyl)-9-hydroxy-11-(3-methylbutyl)-6-oxo-8-(phenylmethyl)-1-phenyl-, 2,2-dioxide-,[5S-,(5R*,8R*,9S*)]]	29	440
